Assay results reported in patent US10077243B2, “Compounds for treating disorders mediated by metabotropic glutamate receptor 5, and methods of use thereof” (Sunovion Pharmaceuticals Inc., priority 2009, dated 2018).

Target: T1, human mGluR5 (Homo sapiens, UniProt P41594)
T1 construct: expressed in transfected cells; host or cells: HEK293 cells stably expressing rat GLAST (EAAT1), stably transfected with pcDNAzeo3.1 carrying synthetic human mGluR5 DNA; zeocin-selected single clones
Experiment: In vitro cell-based FLIPR calcium assay for positive modulation of the activation of mGluR5 by glutamate (PAM EC50)
Details: HEK293/GLAST cells expressing recombinant human mGluR5; FLIPR calcium signal; glutamate added at its EC20; read-out: mGluR5 PAM EC50
Summary of the method: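 PAM activity was measured as FLIPR calcium fluorescence in the presence of an EC20 glutamate concentration determined daily from a glutamate concentration-response curve. Cells were HEK293/GLAST clones expressing mGluR5, dye-loaded at 25 °C for 45–60 min in HEPES-buffered HBSS; vehicle control was 0.3% DMSO.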

T1 sequence (P41594 21-1212): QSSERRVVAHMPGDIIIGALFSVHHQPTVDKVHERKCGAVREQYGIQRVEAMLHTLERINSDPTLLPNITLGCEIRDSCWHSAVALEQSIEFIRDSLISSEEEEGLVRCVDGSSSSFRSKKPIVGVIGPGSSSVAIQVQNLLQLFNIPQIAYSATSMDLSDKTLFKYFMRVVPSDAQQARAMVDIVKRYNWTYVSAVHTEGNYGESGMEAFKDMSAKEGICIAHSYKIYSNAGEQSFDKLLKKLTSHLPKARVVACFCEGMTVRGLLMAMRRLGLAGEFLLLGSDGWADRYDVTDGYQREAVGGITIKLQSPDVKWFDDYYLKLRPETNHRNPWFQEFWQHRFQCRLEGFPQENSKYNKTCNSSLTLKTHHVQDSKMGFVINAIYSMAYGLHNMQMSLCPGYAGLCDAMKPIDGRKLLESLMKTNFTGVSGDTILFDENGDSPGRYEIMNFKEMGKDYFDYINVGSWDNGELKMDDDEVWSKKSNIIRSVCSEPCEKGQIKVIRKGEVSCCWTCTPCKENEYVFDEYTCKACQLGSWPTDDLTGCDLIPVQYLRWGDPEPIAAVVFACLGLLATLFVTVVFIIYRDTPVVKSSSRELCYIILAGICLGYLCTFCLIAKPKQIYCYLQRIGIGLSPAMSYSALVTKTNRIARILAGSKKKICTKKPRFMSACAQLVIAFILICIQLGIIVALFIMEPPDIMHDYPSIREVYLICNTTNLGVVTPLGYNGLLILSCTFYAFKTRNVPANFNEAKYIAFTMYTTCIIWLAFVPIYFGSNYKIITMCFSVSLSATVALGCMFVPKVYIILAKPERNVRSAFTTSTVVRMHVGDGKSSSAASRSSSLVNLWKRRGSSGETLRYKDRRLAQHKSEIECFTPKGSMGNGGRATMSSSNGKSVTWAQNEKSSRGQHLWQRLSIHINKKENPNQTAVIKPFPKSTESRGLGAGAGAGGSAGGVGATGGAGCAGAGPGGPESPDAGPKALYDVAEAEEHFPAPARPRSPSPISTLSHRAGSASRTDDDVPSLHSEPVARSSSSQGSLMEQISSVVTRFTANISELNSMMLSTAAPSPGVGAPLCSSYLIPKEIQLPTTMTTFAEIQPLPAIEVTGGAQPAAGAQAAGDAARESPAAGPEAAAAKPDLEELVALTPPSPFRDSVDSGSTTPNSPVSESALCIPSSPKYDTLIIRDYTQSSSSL

EC50 [nM] | Compound
< 10 | CC1CCc2nc3cc(C#Cc4ccccn4)ccc3c(=O)n2CC1 (stereo not shown) [Example 6.9, 8-methyl-3-(pyridin-2-ylethynyl)-7,8,9,10-tetrahydroazepino[2,1-b]quinazolin-12(6H)-one]
300 to 1000 | CC1Cc2nc3cc(CCc4cccc(F)c4)ccc3c(=O)n2C1 (stereo not shown) [Example 21.7, 6-(3-fluorophenethyl)-2-methyl-2,3-dihydropyrrolo[2,1-b]quinazolin-9(1H)-one]
100 to 300 | O=c1c2ccc(C#CC3=CCCC3)cc2nc2n1CCC1(CC2)OCCO1 [Example 7.51]
300 to 1000 | O=c1c2ccc(C#Cc3ccc(F)cc3)cc2ncn1Cc1ccco1 [Example 1.14, 7-((4-fluorophenyl)ethynyl)-3-(furan-2-ylmethyl)quinazolin-4(3H)-one]
300 to 1000 | O=c1[nH]ccc2cc(C#Cc3cccc(F)c3)ccc12 [Example 18.1, 6-((3-fluorophenyl)ethynyl)isoquinolin-1(2H)-one]
10 to 30 | Cc1cc(C#Cc2ccc3c(=O)n4c(nc3c2)CCC2(CC4)OCCO2)ccn1 [Example 7.47]
100 to 300 | CCC1CCCn2c1nc1cc(C#Cc3cccc(F)c3)ccc1c2=O (stereo not shown) [Example 4.8, 6-ethyl-3-((3-fluorophenyl)ethynyl)-8,9-dihydro-6H-pyrido[2,1-b]quinazolin-11(7H)-one]
100 to 300 | CC(c1nc2cc(C#Cc3ccccn3)ccc2c(=O)n1C)N(C)C (stereo not shown) [Example 2.21, 2-(1-(dimethylamino)ethyl)-3-methyl-7-(pyridin-2-ylethynyl)quinazolin-4(3H)-one]
100 to 300 | COCCN1CCn2c(nc3cc(C#Cc4cccc(F)c4)ccc3c2=O)C1 [Example 5.9, 9-((3-fluorophenyl)ethynyl)-2-(2-methoxyethyl)-3,4-dihydro-1H-pyrazino[2,1-b]quinazolin-6(2H)-one]
100 to 300 | CC(=O)N1CCc2nc3cc(C#Cc4cccc(F)c4)ccc3c(=O)n2CC1 [Example 8.17, 3-acetyl-8-((3-fluorophenyl)ethynyl)-2,3,4,5-tetrahydro-[1,4]diazepino[7,1-b]quinazolin-11(1H)-one]
< 10 | O=c1c2c(nc3cc(C#Cc4ccccn4)ccn13)CCCCC2 [Example 16.3, 3-(pyridin-2-ylethynyl)-7,8,9,10-tetrahydrocyclohepta[d]pyrido[1,2-a]pyrimidin-11(6H)-one]
< 10 | O=c1c2ccc(C#Cc3cccc(F)c3)cc2nc2n1CCC2 [Example 3.1, 6-((3-fluorophenyl)ethynyl)-2,3-dihydropyrrolo[2,1-b]quinazolin-9(1H)-one]
30 to 100 | O=c1c2ccc(C#Cc3ccoc3)cc2nc2n1CCC1(CC2)OCCO1 [Example 7.56]
< 10 | CN1CCn2c(nc3cc(C#Cc4cccc(F)c4)ccc3c2=O)C1 [Example 5.4, 9-((3-fluorophenyl)ethynyl)-2-methyl-3,4-dihydro-1H-pyrazino[2,1-b]quinazolin-6(2H)-one]
< 10 | CCC(C)n1cnc2cc(C#Cc3cccc(F)c3)ccc2c1=O (stereo not shown) [Example 1.19, 3-(sec-butyl)-7-((3-fluorophenyl)ethynyl)quinazolin-4(3H)-one]
100 to 300 | Cc1cnc(NC(=O)c2ccc3c(=O)n4c(nc3c2)CCOCC4)s1 [Example 23.2, N-(5-methylthiazol-2-yl)-11-oxo-2,4,5,11-tetrahyrdo-1H-[1,4]oxazepino[5,4-b]quinazoline-8-carboxamide]
< 10 | O=c1c2ccc(C#Cc3ccccn3)cc2nc2n1CCCCC2 [Example 6.5, 3-(pyridin-2-ylethynyl)-7,8,9,10-tetrahydroazepino[2,1-b]quinazolin-12(6H)-one]
< 10 | CC1(C)Cn2c(nc3cc(C#Cc4ccccn4)ccc3c2=O)C(F)(F)C1 [Example 4.44, 6,6-difluoro-8,8-dimethyl-3-(pyridin-2-ylethynyl)-8,9-dihydro-6H-pyrido[2,1-b]quinazolin-11(7H)-one]
300 to 1000 | O=c1c2ccc(C#Cc3cccc(F)c3)cc2nc2n1CCN(Cc1ccccc1)C2 [Example 5.10, 2-benzyl-9-((3-fluorophenyl)ethynyl)-3,4-dihydro-1H-pyrazino[2,1-b]quinazolin-6(2H)-one]
< 10 | O=c1c2ncc(C#Cc3cccc(F)c3)cc2nc2n1CCCCC2 [Example 11.7, 3-((3-fluorophenyl)ethynyl)-7,8,9,10-tetrahydropyrido[3′,2′:4,5]pyrimido[1,2-a]azepin-12(6H)-one]

EC50 [nM] | Compound
10 to 30 | CC1(C)CCn2c(nc3cc(/C=C/c4ccccn4)ccc3c2=O)C1 [Example 20.7]
10 to 30 | CC(C)CC1Cc2nc3cc(C#Cc4cccc(F)c4)ccc3c(=O)n2C1 (stereo not shown) [Example 3.9, 6-((3-fluorophenyl)ethynyl)-2-isobutyl-2,3-dihydropyrrolo[2,1-b]quinazolin-9(1H)-one]
300 to 1000 | CN1C2CCC1Cn1c(nc3cc(C#Cc4cccc(F)c4)ccc3c1=O)C2 (stereo not shown) [Example 9.1, 3-((3-fluorophenyl)ethynyl)-14-methyl-8,9,10,11-tetrahydro-6H-7,10-epiminoazocino[2,1-b]quinazolin-13(7H)-one]
100 to 300 | CCCCN1CCn2c(nc3cc(C#Cc4cccc(F)c4)ccc3c2=O)C1 [Example 5.11, 2-butyl-9-((3-fluorophenyl)ethynyl)-3,4-dihydro-1H-pyrazino[2,1-b]quinazolin-6(2H)-one]
100 to 300 | CN(C)CC1CCc2nc3cc(C#Cc4cccc(F)c4)ccc3c(=O)n21 (stereo not shown) [Example 3.4, 1-((dimethylamino)methyl)-6-((3-fluorophenyl)ethynyl)-2,3-dihydropyrrolo[2,1-b]quinazolin-9(1H)-one]
300 to 1000 | O=C(Nc1ccc(F)cc1)c1ccc2c(c1)N=C1CCCCCCN1C2 [Example 26.1, N-(4-fluorophenyl)-7,8,9,10,11,13-hexahydro-6H-azocino[2,1-b]quinazoline-3-carboxamide]
30 to 100 | CC1Cn2c(nc3cc(C#Cc4ccccn4)ccc3c2=O)CN1C (stereo not shown) [Example 5.14, 2,3-dimethyl-9-(pyridin-2-ylethynyl)-3,4-dihydro-1H-pyrazino[2,1-b]quinazolin-6(2H)-one]
30 to 100 | O=c1c2c(nc3cc(C#Cc4ccccn4)ccn13)CCCC2 [Example 15.1, 7-(pyridin-2-ylethynyl)-3,4-dihydro-1H-pyrido[2,1-b]quinazolin-11(2H)-one]
10 to 30 | CC1Cc2nc3cc(C#Cc4ccccn4)ccc3c(=O)n2C1 (single isomer, unassigned) [3.12/3.13 slower moving enantiomer (fraction 2), 2-methyl-6-(pyridin-2-ylethynyl)-2,3-dihydropyrrolo[2,1-b]quinazolin-9(1H)-one]
30 to 100 | CCCC1CCc2nc3cc(C#Cc4ccc(F)cc4)ccc3c(=O)n2CC1 (stereo not shown) [Example 6.13, 3-((4-fluorophenyl)ethynyl)-8-propyl-7,8,9,10-tetrahydroazepino[2,1-b]quinazolin-12(6H)-one]
300 to 1000 | O=c1c2ccc(C#Cc3nccs3)cc2nc2n1CCC1(CC2)OCCO1 [Example 7.60]
30 to 100 | O=c1c2ccc(C#Cc3ccco3)cc2nc2n1CCC1(CC2)OCCO1 [Example 7.55]
10 to 30 | O=c1c2ccc(C#Cc3ccncc3)cc2nc2n1CCC1(CC2)OCCO1 [Example 7.12]
100 to 300 | CN1CCCCC12Cc1nc3cc(C#Cc4cccc(F)c4)ccc3c(=O)n1C2 (stereo not shown) [Example 3.16, 6′-((3-fluorophenyl)ethynyl)-1-methyl-1′H-spiro[piperidine-2,2′-pyrrolo[2,1-b]quinazolin]-9′(3′ H)-one]
300 to 1000 | O=c1c2ncc(C#Cc3ccccn3)cc2nc2n1CC1CCCN1C2 (stereo not shown) [Example 11.6, 3-(pyridin-2-ylethynyl)-9,10,10a,11-tetrahydro-6H-pyrido[3,2-d]pyrrolo[1′,2′:4,5]pyrazino[1,2-a]pyrimidin-13(8H)-one]
< 10 | CCC1CCc2nc3cc(C#Cc4ccc(F)cc4)ccc3c(=O)n2CC1 (stereo not shown) [Example 6.12, 8-ethyl-3-((4-fluorophenyl)ethynyl)-7,8,9,10-tetrahydroazepino[2,1-b]quinazolin-12(6H)-one]
30 to 100 | CC1(C)CCn2c(nc3nc(C#Cc4ccccn4)ccc3c2=O)C1 [Example 12.2, 9,9-dimethyl-2-(pyridin-2-ylethynyl)-7,8,9,10-tetrahydro-5H-dipyrido[1,2-a:2′,3′-d]pyrimidin-5-one]
30 to 100 | CC1(C)CCc2nc3cc(/C=C/c4ccccc4F)ccc3c(=O)n2C1 [Example 20.12, (E)-3-(2-fluorostyryl)-8,8-dimethyl-8,9-dihydro-6H-pyrido[2,1-b]quinazolin-11(7H)-one]
300 to 1000 | Cc1ccsc1C#Cc1ccc2c(=O)n3c(nc2c1)CCC1(CC3)OCCO1 [Example 7.58]
< 10 | CC1(C)CCc2nc3cc(C#Cc4cccc(F)c4)ccc3c(=O)n2C1 [Example 4.14, 3-((3-fluorophenyl)ethynyl)-8,8-dimethyl-8,9-dihydro-6H-pyrido[2,1-b]quinazolin-11(7H)-one]

Compound | EC50 [nM]
CC1(C)CCc2c(nc3cc(C#Cc4ccccn4)ccn3c2=O)C1 [Example 15.3, 3,3-dimethyl-7-(pyridin-2-ylethynyl)-3,4-dihydro-1H-pyrido[2,1-b]quinazolin-11(2H)-one] | < 10
CC(C)Cc1nc2cc(C#Cc3cccc(F)c3)ccc2c(=O)n1C [Example 2.12, 7-((3-fluorophenyl)ethynyl)-2-isobutyl-3-methylquinazolin-4(3H)-one] | 30 to 100

Same assay, conditions: mGluR5 PAM EC50, HEK293/GLAST cells expressing recombinant human mGluR5; FLIPR calcium signal; glutamate added at its EC20

Compound | EC50 [nM]
CC1(C)CCc2nc3cc(C#Cc4ccccn4)ccc3c(=O)n2CC1 [Example 6.40, 8,8-dimethyl-3-(pyridin-2-ylethynyl)-7,8,9,10-tetrahydroazepino[2,1-b]quinazolin-12(6H)-one] | < 10
